# Source: patent US20220096415A1, “Composition for Improving Cognitive Function” (Demencare Laboratory Inc., priority 2018, published 2022)
# Assays:
# [1] = test system: neurons from APP-KI mouse; experiment: Human Aβ42 secreted by APP-KI mouse neurons; assay type: cell-based; settings: LA-treated versus c9,t11-CLA-treated nerves, p<0.05, not shown
# Excerpt: The amount of Aβ42 generated from endogenous amyloid-β (Aβ) precursor protein APP is usually very small. Thus, it is difficult to accurately quantify Aβ42 secreted from wild-type mouse neurons. Then, the mouse Aβ sequence was changed to a human form (in FIG. 3(B), the mouse and human amino acid sequences). After that, neurons from a knock-in mouse, into which a familial Alzheimer's disease mutation that increases the level of Aβ42 produced was introduced, (Apptm3.1Tcs/Apptm3.1Tcs) (hereinafter, the same as a mouse called APP-KI mouse described in Non-Patent Literature 6: Saito et al. [2014] Nature Neuroscience 17, 661-663) were cultured in a manner similar to the above. Finally, human Aβ42 secreted while the same experiments as in FIG. 3(A) were repeated was quantified (Non-Patent Literature 7: Kimura, Hata, Suzuki [2016] J. Biol. Chem. 291, 24041-24053).
# [2] = biological target: T1, recombinant BACE1 (rBACE1) (Homo sapiens, UniProt P56817); experiment: BACE1 activity with recombinant BACE1 in the presence of LA or c9,t11-CLA; assay type: biochemical; settings: 100 μM; for BACE1 activity compared to just a solvent DMSO: rBACE1, 37° C. 15 min, then substrate 1 h
# T1 construct: purchased R&D Systems 931-AS
# Method: Whether or not c9,t11-CLA directly acted on BACE1 and changed its activity was checked by measuring the BACE1 activity in the presence or absence of LA or c9,t11-CLA while recombinant BACE1 (rBACE1, catalog number 931-AS; R&D Systems, Minneapolis, Minn., USA) was used (FIG. 6). First, 100 μM LA or c9,t11-CLA, which had been dissolved in DMSO, was added to rBACE1, and the mixture was incubated at 37° C. for 15 min. Next, a chromogenic substrate was added and incubated at 37° C. for 1 h. Then, the BACE1 activity was measured.
# wild-type mouse neurons = experiment: Aβ40 secreted into culture medium by wild-type mouse neurons (sandwich ELISA); assay type: cell-based; settings: 10 uM, 24 h; compared with LA-added neurons (LA set to 1.0)
# Method: Neurons in the cerebral cortex and hippocampus were isolated from the fetal brain of wild-type mouse (C57BL6/J) and were cultured in Neurobasal Medium containing 2% B-27 Supplement (Invitrogen), 4 mM Glutamax I, and 5% heat-inactivated horse serum (the other detailed conditions were substantially the same as in the protocol disclosed in Non-Patent Literature 4: Chiba et al., [2014] Mol. Biol. Cell 25, 3569-3580).
# Primary culture nerves (5×10^3 cells), which had been cultured by the above procedure for 9 to 12 days (DIV9-12), were cultured for 24 h in each of a culture medium containing 10 uM linoleic acid (LA “L1376”, Sigma-Aldrich, Inc.) or a culture medium containing 10 uM c9,t11-CLA (purity: 98%, ABCAM, Inc.) (the experiment was triplicate: n=3 to 6). Next, for each of a sample using LA or a sample using c9,t11-CLA, mouse amyloid β-protein 40 (Aβ40) secreted into the culture medium was quantified by sandwich ELISA (sELISA). […]
# The complex was then reacted with an IgG Fab′ fragment of HRP (Horseradish peroxidase)-labeled mouse/rat Aβ(1-16) sequence-specific (rabbit) antibody (IBL, Inc.: Immuno-Biological Laboratories Co, Ltd.). After that, TMB (3,3′,5,5′-tetramethyl benzidine) was used as a chromogenic substrate for quantification. […] In FIG. 3(A), while the level of Aβ40 secreted when LA was added was set to 1.0, the level of Aβ40 secreted when c9,t11-CLA was added was quantified.
# BACE1 = BACE1 activity of wild-type mouse neurons (β-Secretase Activity Assay Kit); assay type: cell-based; settings: 10 uM, 24 h, compared with LA-added neurons
# Method: The BACE1 activity of the above wild-type mouse neurons used in the experiments shown in FIG. 3 was measured using a β-Secretase (BACE1) Activity Assay Kit (“ab65357”, Abcam, Inc.) in accordance with the instructions.
# wild-type neurons = experiment: Western blot of APP, BACE1 and PS1 NTF levels in wild-type neurons; assay type: cell-based, mouse; settings: c9,t11-CLA versus LA
# Method: Western blot was used to analyze the level of APP (Aβ precursor, which is a substrate for BACE1), BACE1, PS1 NTF (a catalytic unit of γ-Secretase, which is an enzyme for cleaving CTFβ, an APP C-terminal fragment containing an Aβ sequence cleaved by BACE1, to generate Aβ), and a membrane protein Flotillin (control protein) in the LA-added or c9,t11-CLA-added wild-type neurons. The whole cells were lysed in RIPA buffer (components: 50 mM Tris-HCl [pH 8.0], 150 mM NaCl, 0.5% SDS, 0.5% sodium deoxycholate, and 1% Nonidet P-40). The extracted proteins (15 μg protein) were subjected to electrophoresis using SDS-polyacrylamide gel. Then, Western blot with each antibody was used to analyze APP (with the same as an antibody G369, described in Non-Patent Literature 8: Oishi et al. [1997] Mol. Med. 3, 111-123), BACE1 (with an antibody D10E5; Cell Signaling Technology, Inc.), PS1 NTF (with the same as an antibody Ab14, described in Non-Patent Literature 9: Thinakaran et al. [1996] Neuron, 17, 181-190), and Flotillin-1 (with an antibody 610821, BD Bioscience, Inc.). The protein reacted with each antibody was detected using a Clarity Western ECL substrate (Cat *170-5061; Bio-Rad) and quantified with LAS-4000 (Fujifilm).
# AD model mice = AD model mice with oral intake of c9,t11-CLA: brain staining (IL-10, phosphorylated tau, astrocytes, microglia); assay type: in vivo, mouse
# neurons = settings: Non-Patent Literature 1; cited from earlier work
# neural stem cells = settings: Non-Patent Literature 3; cited from earlier work
# [3] = hippocampus, oral intake versus no intake
# T1 sequence (P56817 46-457 limits assumed): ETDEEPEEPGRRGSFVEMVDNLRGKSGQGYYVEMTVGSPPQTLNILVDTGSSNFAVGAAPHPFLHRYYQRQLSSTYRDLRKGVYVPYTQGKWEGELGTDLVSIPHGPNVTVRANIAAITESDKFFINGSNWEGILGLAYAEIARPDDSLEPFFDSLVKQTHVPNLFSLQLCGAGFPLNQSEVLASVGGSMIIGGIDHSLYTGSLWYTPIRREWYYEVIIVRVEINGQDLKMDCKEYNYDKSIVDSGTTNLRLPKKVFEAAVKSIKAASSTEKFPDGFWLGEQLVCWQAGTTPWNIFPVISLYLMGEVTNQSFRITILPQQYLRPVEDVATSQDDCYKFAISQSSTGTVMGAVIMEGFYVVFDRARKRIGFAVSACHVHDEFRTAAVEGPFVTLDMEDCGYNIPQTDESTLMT
Structure (SMILES),level of human Aβ42 secreted [1],BACE1 activity compared to just a solvent DMSO [2],level of Aβ produced/secreted (mouse Aβ40) (wild-type mouse neurons),BACE1 activity of neurons (BACE1),level of APP (wild-type neurons),level of BACE1 (wild-type neurons),level of PS1 NTF (wild-type neurons),"difference in BACE1 activity between LA and c9,t11-CLA ([2]; rBACE1)","Microglia (Iba1 staining) (AD model mice; cortex, CLA intake group)","Microglia (Iba1 staining) (AD model mice; hippocampus, CLA intake group)","number of IL-10-expressing cells (AD model mice; hippocampus, CLA intake group)",Astrocyte staining (AD model mice; [3]),Phosphorylated tau protein staining (AD model mice; [3]),prevention of glutamic acid-induced hyper-excited state and cell death of neurons (neuroprotective effect) (neurons),effect on growth of neural stem cells (neural stem cells)
"CCCCC/C=C\C/C=C\CCCCCCCC(=O)O [LA, linoleic acid, reference compound]",significantly lower,increase in the activity,,,,,,,,,,,,,
"CCCCCC/C=C/C=C\CCCCCCCC(=O)O [c9,t11-CLA, c9,t11-conjugated linoleic acid]",,increase in the activity,significantly lower,significantly lower,no observed significant difference,no observed significant difference,no observed significant difference,no observed significant difference,significant increase,significant increase,significantly increased,tended to decrease,tended to decrease,can exert the effects,promoting growth of neural stem cells
"CCCCC/C=C\C=C\CCCCCCCCC(=O)O [t10,c12-CLA, t10,c12-conjugated linoleic acid, reference compound]",,,,,,,,,,,,,,fails to exert such effects,inhibition of growth of neural stem cells
